Experimental data from patent US20230101803A1, “3CLPRO-TARGETING PHILLYRIN, DERIVATIVE THEREOF, AND USE THEREOF AGAINST NOVEL CORONAVIRUS” (DALIAN FUSHENG NATURAL MEDICINE DEVELOPMENT CO., LTD., priority 2020, published 2023).
Like-named read-outs stand apart in the source and are kept apart here.

Columns and labels:
HCoV-229E = experiment: CPE inhibition of HCoV-229E in vitro (process of first embodiment); assay type: cell-based
SARS-CoV-2 virus [1] = experiment: Death protection of hACE2 mice infected with novel coronavirus; assay type: in vivo, hACE2 transgenic C57BL/6 mice; details: positive control 50 mg/kg
Description: Except for administrating PBS to the mice in the normal group by nasal drip, the mice in other groups were infected with 10^5 PFU of SARS-CoV-2 virus by nasal drip. […] Changes in body weight were recorded every day after infection, and 5-day mortality was calculated.

SARS-CoV-2 virus [2] = experiment: Viral titer in lung tissues of novel coronavirus-infected mice; assay type: in vivo, ACE2 transgenic C57BL/6 mice; details: positive control 50 mg/kg, fifth day after infection
Description: (§1) Mice: hACE2 mice, 6-7 weeks old, 20-40 g, 120 males in total, laboratory animal supplier: Jiangsu Gempharmatech Co., Ltd.; laboratory animal production license: SOCK (Su) 2018-0008; laboratory animal certificate No.: No.320727201100243581; diets supplier: Jiangsu Medicience Biopharmaceutical Co., Ltd.
(§2) Except for administrating PBS to the mice in the normal group by nasal drip, the mice in other groups were infected with 10^5 PFU of SARS-CoV-2 virus by nasal drip. Two hours after infection, phillyrin was intragastrically administrated to the mice in the administrating groups, once a day, for 5 consecutive days. On the fifth day after infection, the animals were dissected to take lungs for tissue homogenization to test the viral titer. Total RNA was extracted from the supernatant of lung tissue homogenate by Trizol method, and the mRNA expression of related inflammatory factors was detected by RT-qPCR.

IL-1β = IL-1β mRNA expression in lung homogenate of infected mice (RT-qPCR); assay type: in vivo, ACE2 transgenic C57BL/6 mice; details: positive control 50 mg/kg, fifth day after infection
Description: as §1, §2

IFN-γ = IFN-γ mRNA expression in lung homogenate of infected mice (RT-qPCR); assay type: in vivo, ACE2 transgenic C57BL/6 mice; details: positive control 50 mg/kg, fifth day after infection
Description: as §1, §2

IFN-α = IFN-α mRNA expression in lung homogenate of infected mice (RT-qPCR); assay type: in vivo, ACE2 transgenic C57BL/6 mice; details: positive control 50 mg/kg, fifth day after infection
Description: as §1, §2

MCP-1 = MCP-1 mRNA expression in lung homogenate of infected mice (RT-qPCR); assay type: in vivo, ACE2 transgenic C57BL/6 mice; details: positive control 50 mg/kg, fifth day after infection
Description: as §1, §2

[3] = molecular target: SARS-CoV-2 3CL pro protein (Severe acute respiratory syndrome coronavirus 2, UniProt P0DTD1); assay type: binding; details: 3CL pro protein peak at 278 nm; protein 10^−5 M, compound 10^−4 M

Question: With COc1cc([C@H]2OC[C@H]3[C@@H]2CO[C@H]3c2ccc(OC)c(OC)c2)ccc1O [phillygenin] as the compound, how does the “inhibitory effect (compared in the same study)” value (HCoV-229E; HCoV-229E, compared with the composition) read?
Answer: worse

Question: What does the source list for CCC(CC)COC(=O)[C@H](C)N[P@](=O)(OC[C@H]1O[C@@](C#N)(c2ccc3c(N)ncnn23)[C@H](O)[C@@H]1O)Oc1ccccc1 [Remdesivir]?
Answer: Mean survival days (SARS-CoV-2 virus [1]): 4.86 ± 0.38 days; Survival rate (%) (SARS-CoV-2 virus [1]): 87.50%; Viral titer in lung (Log10) (SARS-CoV-2 virus [2]): 1.68 ± 0.45 Log10; IL-1β mRNA expression in lung homogenate (IL-1β): 7.41 ± 5.86; IFN-γ mRNA expression in lung homogenate (IFN-γ): 173.79 ± 84.84; IFN-α mRNA expression in lung homogenate (IFN-α): 69.99 ± 53.20; MCP-1 mRNA expression in lung homogenate (MCP-1): 7.31 ± 5.14

Question: What does the source list for phillyrin [KD-1]?
Answer: inhibitory effect (compared in the same study) (HCoV-229E): worse; change of UV-Vis absorbance of 3CL pro protein after compound was added [3]: the absorbance was increased and the peak shifted
